Test [1] deals with p-Erk in human dermal fibroblasts (HDFs). The test can be described thus: in vitro scratch assay, p-Erk-positive cells (immunofluorescence). Particulars: HDFs in basal medium; pre-treatment 10 to 30 min prior to scratch with 20 nM rapamycin or 10 μM U0126; fixed 30 min after scratch; vs DMSO. The format is cell-based. As to the method: (§1) To model a skin wound in vitro, cell cultures were subjected to a damage assay to monitor cellular response mechanisms. Commercially available human dermal fibroblasts (HDFs) were cultured in HDF medium (DMEM/F12 (Sigma Aldrich), 10% fetal bovine serum (Sigma Aldrich) and 4 mM L-Glutamine (Gibco)), subcultivated at 90% confluency and used for experiments below passage 15. Immortalised human keratinocytes (HaCaT) were maintained in HACAT medium (DMEM high glucose (Sigma Aldrich), 10% fetal bovine serum (Sigma Aldrich) and 2 mM L-Glutamine (Gibco) and subcultivated at 60% confluency. All cell culture experiments were performed in a humidified incubator at 37° C. and 5% CO2. […]
(§2) For immunofluorescence staining, the coverslips containing damaged and control cells were permeabilized using 0.5% Triton X100 for 5 min, washed three times with PBS for 5 min each, and blocked using PBS with 5% goat serum (VECS-1000, Vector Laboratories) for 1 h. […] For quantification of rpS6 and Erk phosphorylation, ten images per slide were taken along the scratch using an inverted microscope Nikon (Nikon Corporation, Tokyo, Japan) with set exposure times. These images were processed and quantified for total cell count and activated cell count (p-rpS6 or p-ERK positive cells) using set thresholds and particle analysis in Fiji. […]

Test [2] relates to p-rpS6 in human dermal fibroblasts (HDFs). The experiment in a line: in vitro scratch assay, p-rpS6-positive cells (immunofluorescence). Format: cell-based. Conditions: HDFs in basal medium; pre-treatment 10 to 30 min prior to scratch with 20 nM rapamycin or 10 μM U0126; fixed 30 min after scratch; vs DMSO. As to the method:
as §1, §2

The structures appear in SMILES notation.

With `N#CC(=C(/N)Sc1ccccc1N)/C(C#N)=C(\N)Sc1ccccc1N` [U0126], in test [1], the “effect on Erk phosphorylation (number of cells positive for p-Erk) in the scratch assay” value is listed as “almost completely abrogating p-Erk-positive cells”. In test [2], the “effect on p-rpS6 induction (number of cells positive for p-rpS6) in the scratch assay” value is listed as “no significant effect on rpS6 phosphorylation”.

For the origin of these results see US20260259222A1, “METHOD OF DIAGNOSING WOUNDS” (TRAUMA CARE CONSULT TRAUMATOLOGISCHE FORSCHUNG …, priority 2022, published 2026).
